Test results reported in US20230365592A1 (Agios Pharmaceuticals, Inc., priority 2022, published 2023).

What follows are molecules tested against T1, human PAH with the R408W mutation (Homo sapiens, UniProt P00439, R408W) (assay: Cell Based Phenylalanine Flux Assay). Conditions: A375 cells expressing R408W PAH; 24 hrs with compound, then 20 µM sepiapterin and 800 µM 13C9,15N-Phenylalanine for 4 hours; 13C-Tyrosine by LC-MS; average where tested multiple times; read-out: AC50.
T1 construct: expressed in transfected cells
T1 sequence (P00439 1-452 R408W): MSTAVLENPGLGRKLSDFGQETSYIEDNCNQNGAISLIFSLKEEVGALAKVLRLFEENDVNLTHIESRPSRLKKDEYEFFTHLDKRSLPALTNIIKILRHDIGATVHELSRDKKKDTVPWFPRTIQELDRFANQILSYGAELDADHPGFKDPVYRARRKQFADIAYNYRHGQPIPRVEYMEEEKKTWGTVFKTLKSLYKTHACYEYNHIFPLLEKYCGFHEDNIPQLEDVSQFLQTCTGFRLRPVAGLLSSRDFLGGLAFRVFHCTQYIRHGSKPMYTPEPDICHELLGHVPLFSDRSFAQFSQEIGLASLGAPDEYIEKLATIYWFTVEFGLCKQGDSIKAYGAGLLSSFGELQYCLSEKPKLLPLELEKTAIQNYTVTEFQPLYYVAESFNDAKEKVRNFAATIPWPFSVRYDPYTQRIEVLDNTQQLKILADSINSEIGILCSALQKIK
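Further: after compound treatment, cells received sepiapterin plus isotope-labelled Phenylalanine for 4 hours, then labelled Tyrosine in the medium was quantified, 10-point 2-fold dilution series run in duplicate.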

AC50 | SMILES
1 to 5 µM | O=C(C1CC1(F)F)N1CCc2[nH]cnc2C1c1cc2ccccn2n1 (stereo not drawn)
> 5 µM | CN(C)CCc1ccc2c(C(=O)N3CCc4[nH]cnc4C3c3cc4cccc(C(F)(F)F)n4n3)cnn2c1 (stereo not drawn)
1 to 5 µM | Cc1ccn2nc(C3c4nc[nH]c4CCN3C(=O)c3nnc(C(C)(C)O)o3)cc2c1 (stereo not drawn)
1 to 5 µM | Cc1nnc(C(=O)N2CCc3[nH]cnc3C2c2cc3cccc(Cl)n3n2)o1 (stereo not drawn)
1 to 5 µM | Cc1c(C2c3nc[nH]c3CCN2C(=O)c2nnc(C(C)(C)C)o2)nn2ccccc12 (stereo not drawn)
1 to 5 µM | FC(F)c1cccn2nc(C3c4[nH]cnc4CCN3c3nnc(-c4ccccn4)o3)cc12 (stereo not drawn)
1 to 5 µM | O=C(c1cnco1)N1CCc2[nH]cnc2C1c1cc2cccc(C(F)(F)F)n2n1 (stereo not drawn)
1 to 5 µM | COCc1ccc2c(C(=O)N3CCc4[nH]cnc4C3c3cc4cccc(Cl)n4n3)cnn2c1 (stereo not drawn)
> 5 µM | Cn1ccc(-c2nc(C(F)F)c(C(=O)N3CCc4[nH]cnc4C3c3cc4c(F)cccn4n3)o2)n1 (stereo not drawn)

Same assay, conditions: A375 cells expressing human PAH R408W; 24 hrs compound incubation; 13C-Tyrosine by LC-MS; average where tested multiple times; read-out: AC50

SMILES | AC50
O=C(c1nnc(-c2cnccn2)o1)N1CCc2[nH]cnc2[C@@H]1c1cc2c(OC(F)F)cccn2n1 [Example 2449, (R)-(4-(4-(difluoromethoxy)pyrazolo[1,5-a]pyridin-2-yl)-6,7-dihydro-1H-imidazo[4,5-c]pyridin-5(4H)-yl)(5-(pyrazin-2-yl)-1,3,4-oxadiazol-2-yl)methanone] | > 5 µM
Cc1cccn2nc([C@H]3c4nc[nH]c4CCN3c3nnc(-c4cccc(F)n4)o3)cc12 [Example 2360, (R)-2-(6-fluoropyridin-2-yl)-5-(4-(4-methylpyrazolo[1,5-a]pyridin-2-yl)-1,4,6,7-tetrahydro-5H-imidazo[4,5-c]pyridin-5-yl)-1,3,4-oxadiazole] | > 5 µM
O=C(c1oc(-c2ccccn2)nc1C1CC1)N1CCc2[nH]cnc2[C@@H]1c1cc2c(C(F)F)cccn2n1 [Example 2123, (R)-(4-cyclopropyl-2-(pyridin-2-yl)oxazol-5-yl)(4-(4-(difluoromethyl)pyrazolo[1,5-a]pyridin-2-yl)-1,4,6,7-tetrahydro-5H-imidazo[4,5-c]pyridin-5-yl)methanone] | 1 to 5 µM
FC(F)(F)c1cnc(N2CCc3[nH]cnc3[C@H]2c2cc3c(C4CC4)cccn3n2)nc1 [Example 2174, (S)-4-(4-cyclopropylpyrazolo[1,5-a]pyridin-2-yl)-5-(5-(trifluoromethyl)pyrimidin-2-yl)-4,5,6,7-tetrahydro-1H-imidazo[4,5-c]pyridine] | < 0.5 µM

Second part, the molecule after the results:

AC50 | SMILES
< 0.5 µM | Fc1cccc(N2CCc3[nH]cnc3[C@H]2c2cc3ccccn3n2)n1 [Example 2135, (S)-5-(6-fluoropyridin-2-yl)-4-(pyrazolo[1,5-a]pyridin-2-yl)-4,5,6,7-tetrahydro-1H-imidazo[4,5-c]pyridine]
0.5 to 1 µM | Cn1nccc1-c1nnc(C(=O)N2CCc3[nH]cnc3[C@H]2c2cc3ccccn3n2)o1 [Example 2004, (S)-(5-(1-methyl-1H-pyrazol-5-yl)-1,3,4-oxadiazol-2-yl)(4-(pyrazolo[1,5-a]pyridin-2-yl)-1,4,6,7-tetrahydro-5H-imidazo[4,5-c]pyridin-5-yl)methanone]
0.5 to 1 µM | Cc1ncccc1-c1nnc(N2CCc3[nH]cnc3[C@H]2c2cc3c(C(C)C)cccn3n2)o1 [Example 2234, (S)-2-(4-(4-isopropylpyrazolo[1,5-a]pyridin-2-yl)-1,4,6,7-tetrahydro-5H-imidazo[4,5-c]pyridin-5-yl)-5-(2-methylpyridin-3-yl)-1,3,4-oxadiazole]

Same assay, conditions: A375 cells expressing human R408W PAH; 24 hrs compound incubation; 13C-Tyrosine by LC-MS; average where tested multiple times; read-out: AC50

SMILES | AC50
CC(C)(O)c1nc(C(F)(F)F)c(C(=O)N2CCc3[nH]cnc3[C@H]2c2cc3cccc(Cl)n3n2)o1 [Example 1192, (S)-(4-(7-chloropyrazolo[1,5-a]pyridin-2-yl)-6,7-dihydro-1H-imidazo[4,5-c]pyridin-5(4H)-yl)(2-(2-hydroxypropan-2-yl)-4-(trifluoromethyl)oxazol-5-yl)methanone] | < 0.5 µM
FC(F)c1cccn2nc([C@H]3c4nc[nH]c4CCN3c3ncc(C(F)(F)F)cn3)cc12 [Example 1777, (R)-4-(4-(difluoromethyl)pyrazolo[1,5-a]pyridin-2-yl)-5-(5-(trifluoromethyl)pyrimidin-2-yl)-4,5,6,7-tetrahydro-1H-imidazo[4,5-c]pyridine] | > 5 µM
O=C(c1oc(C2(O)CC2)nc1C(F)F)N1CCc2[nH]cnc2[C@H]1c1cc2ccccn2n1 [Example 994, (S)-(4-(difluoromethyl)-2-(1-hydroxycyclopropyl)oxazol-5-yl)(4-(pyrazolo[1,5-a]pyridin-2-yl)-6,7-dihydro-1H-imidazo[4,5-c]pyridin-5(4H)-yl)methanone] | < 0.5 µM
Cc1nc(C(C)(C)C#N)oc1C(=O)N1CCc2[nH]cnc2[C@H]1c1cc2ccccn2n1 [Example 992, (S)-2-methyl-2-(4-methyl-5-(4-(pyrazolo[1,5-a]pyridin-2-yl)-4,5,6,7-tetrahydro-1H-imidazo[4,5-c]pyridine-5-carbonyl)oxazol-2-yl)propanenitrile] | 0.5 to 1 µM
COc1ccc2c(C(=O)N3CCc4[nH]cnc4[C@@H]3c3cc4c(Cl)cccn4n3)cnn2c1 [Example 1699, (R)-(4-(4-chloropyrazolo[1,5-a]pyridin-2-yl)-6,7-dihydro-1H-imidazo[4,5-c]pyridin-5(4H)-yl)(6-methoxypyrazolo[1,5-a]pyridin-3-yl)methanone] | > 5 µM
Cn1cnc(-c2nnc(C(=O)N3CCc4[nH]cnc4[C@@H]3c3cc4cccc(Cl)n4n3)o2)c1 [Example 1098, (R)-(4-(7-chloropyrazolo[1,5-a]pyridin-2-yl)-6,7-dihydro-1H-imidazo[4,5-c]pyridin-5(4H)-yl)(5-(1-methyl-1H-imidazol-4-yl)-1,3,4-oxadiazol-2-yl)methanone] | > 5 µM
O=C(Cc1nc(C(F)(F)F)cs1)N1CCc2[nH]cnc2[C@@H]1c1cc2ccccn2n1 [Example 609, (R)-1-(4-(pyrazolo[1,5-a]pyridin-2-yl)-6,7-dihydro-1H-imidazo[4,5-c]pyridin-5(4H)-yl)-2-(4-(trifluoromethyl)thiazol-2-yl)ethanone] | > 5 µM
Cc1ncoc1C(=O)N1CCc2[nH]cnc2[C@H]1c1cc2c(F)cccn2n1 [Example 774, (S)-(4-(4-fluoropyrazolo[1,5-a]pyridin-2-yl)-6,7-dihydro-1H-imidazo[4,5-c]pyridin-5(4H)-yl)(4-methyloxazol-5-yl)methanone] | < 0.5 µM

Second part, the molecule after the results:

AC50 | SMILES
1 to 5 µM | O=C(c1nnc(C2CC2)o1)N1CCc2[nH]cnc2[C@H]1c1cc2ccccn2n1 [Example 620, (S)-(5-cyclopropyl-1,3,4-oxadiazol-2-yl)(4-(pyrazolo[1,5-a]pyridin-2-yl)-6,7-dihydro-1H-imidazo[4,5-c]pyridin-5(4H)-yl)methanone]
< 0.5 µM | Cc1cnn(C)c1-c1nnc(C(=O)N2CCc3[nH]cnc3[C@H]2c2cc3cccc(F)n3n2)o1 [Example 1528, (S)-(5-(1,4-dimethyl-1H-pyrazol-5-yl)-1,3,4-oxadiazol-2-yl)(4-(7-fluoropyrazolo[1,5-a]pyridin-2-yl)-6,7-dihydro-1H-imidazo[4,5-c]pyridin-5(4H)-yl)methanone]
0.5 to 1 µM | Cc1cccn2nc([C@@H]3c4nc[nH]c4CCN3C(=O)c3nnc(C4CC(F)(F)C4)o3)cc12 [Example 1598, (S)-(5-(3,3-difluorocyclobutyl)-1,3,4-oxadiazol-2-yl)(4-(4-methylpyrazolo[1,5-a]pyridin-2-yl)-6,7-dihydro-1H-imidazo[4,5-c]pyridin-5(4H)-yl)methanone]
1 to 5 µM | CC(C)(O)c1nc(C(F)(F)F)c(C(=O)N2CCc3[nH]cnc3[C@@H]2c2cc3ccccn3n2)o1 [Example 629, (R)-(2-(2-hydroxypropan-2-yl)-4-(trifluoromethyl)oxazol-5-yl)(4-(pyrazolo[1,5-a]pyridin-2-yl)-6,7-dihydro-1H-imidazo[4,5-c]pyridin-5(4H)-yl)methanone]
< 0.5 µM | Cn1ccc(-c2nnc(C(=O)N3CCc4[nH]cnc4[C@H]3c3cc4c(C(F)(F)F)cccn4n3)o2)n1 (single isomer, unassigned) [Example 836]
> 5 µM | Cn1cc(-c2nnc(C(=O)N3CCc4[nH]cnc4[C@@H]3c3cc4ccccn4n3)o2)c(C(F)(F)F)n1 [Example 679, (R)-(5-(1-methyl-3-(trifluoromethyl)-1H-pyrazol-4-yl)-1,3,4-oxadiazol-2-yl)(4-(pyrazolo[1,5-a]pyridin-2-yl)-6,7-dihydro-1H-imidazo[4,5-c]pyridin-5(4H)-yl)methanone]
0.5 to 1 µM | FC(F)(F)c1cccc2cc([C@@H]3c4nc[nH]c4CCN3c3ncccn3)nn12 [Example 1765, (S)-5-(pyrimidin-2-yl)-4-(7-(trifluoromethyl)pyrazolo[1,5-a]pyridin-2-yl)-4,5,6,7-tetrahydro-1H-imidazo[4,5-c]pyridine]
< 0.5 µM | O=C(c1nnc(-c2cc(C(F)(F)F)ccn2)o1)N1CCc2[nH]cnc2[C@H]1c1cc2ccccn2n1 [Example 669, (S)-(4-(pyrazolo[1,5-a]pyridin-2-yl)-6,7-dihydro-1H-imidazo[4,5-c]pyridin-5(4H)-yl)(5-(4-(trifluoromethyl)pyridin-2-yl)-1,3,4-oxadiazol-2-yl)methanone]
> 5 µM | O=C(c1nnc(-c2ncccc2F)o1)N1CCc2[nH]cnc2[C@@H]1c1cc2ccccn2n1 [Example 617, (R)-(5-(3-fluoropyridin-2-yl)-1,3,4-oxadiazol-2-yl)(4-(pyrazolo[1,5-a]pyridin-2-yl)-6,7-dihydro-1H-imidazo[4,5-c]pyridin-5(4H)-yl)methanone]
